From PubChem BioAssay AID212 (DTP/NCI, 2004)
Several values for one entry are separate records, joined by “and”; a condition that tells them apart may be missing. Equal values may be shown once. Results filed as inconclusive are left out.

Tested on: BDF1 mice, colon carcinoma 38 sc, T/C %
Test: NCI In Vivo Anticancer Drug Screen. Data for tumor model Colon Carcinoma 38 (subcutaneous) in B6D2F1 (BDF1) mice
Conditions: endpoint: median tumor weight (est.), higher = larger tumour
Procedure, shortened: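 Ratio of survival or tumor size, compound-treated animals relative to vehicle controls, in tumor-bearing mice.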

[1] = dose: 100.0 mg/kg/injection, schedule: Q07DX002 (ip), vehicle: Klucel (hydroxypropylcellulose) (HPC)
[2] = dose: 200.0 mg/kg/injection, schedule: Q07DX002 (ip), vehicle: Klucel (hydroxypropylcellulose) (HPC)
[3] = dose: 400.0 mg/kg/injection, schedule: Q07DX002 (ip), vehicle: Klucel (hydroxypropylcellulose) (HPC)
[4] = dose: 6.25 mg/kg/injection, schedule: Q07DX002 (ip), vehicle: saline with Tween-80
[5] = dose: 12.5 mg/kg/injection, schedule: Q07DX002 (ip), vehicle: saline with Tween-80
[6] = dose: 50.0 mg/kg/injection, schedule: Q07DX002 (ip), vehicle: saline with Tween-80
[7] = dose: 100.0 mg/kg/injection, schedule: Q07DX002 (ip), vehicle: saline with Tween-80
[8] = dose: 200.0 mg/kg/injection, schedule: Q07DX002 (ip), vehicle: saline with Tween-80
[9] = dose: 25.0 mg/kg/injection, schedule: Q07DX002 (ip), vehicle: saline with Tween-80
[10] = dose: 50.0 mg/kg/injection, schedule: Q07DX002 (ip), vehicle: Klucel (hydroxypropylcellulose) (HPC)

`C1CN2CCC1CC2` was tested, and the T/C (dose: 3.12 mg/kg/injection, schedule: Q07DX003 (ip), vehicle: saline) was 101 % of control and the T/C (dose: 6.25 mg/kg/injection, schedule: Q07DX003 (ip), vehicle: saline) was 78 % of control.

For `O=C(O)Cc1cc(O)cc2c(=O)cc(-c3ccccc3)oc12`, the T/C [1] was 52 % of control, the T/C [2] was 63 % of control and the T/C [3] was 103 % of control.

`Nc1ccn(C2OC(CO)C(O)C2O)c(=O)n1` (stereo unspecified) was tested, and the T/C (dose: 100.0 mg/kg/injection, schedule: Q07DX002 (ip), vehicle: saline) was 69 % of control, the T/C (dose: 150.0 mg/kg/injection, schedule: Q07DX002 (ip), vehicle: saline) was 74 % of control and the T/C (dose: 400.0 mg/kg/injection, schedule: Q07DX002 (ip), vehicle: saline) was 75 % of control and 95 % of control. For the same compound, the T/C (dose: 600.0 mg/kg/injection, schedule: Q07DX002 (ip), vehicle: saline) was 29 % of control and 43 % of control, the T/C (dose: 800.0 mg/kg/injection, schedule: Q07DX002 (ip), vehicle: saline) was 35 % of control and the T/C (dose: 1200.0 mg/kg/injection, schedule: Q07DX002 (ip), vehicle: saline) was 44 % of control and 55 % of control.

In the case of `COC1=CC(=O)C(OC)=C(OC)C1=O`, the T/C [4] is reported as 115 % of control and 92 % of control, the T/C [5] is reported as 160 % of control and 185 % of control and the T/C [6] is reported as 62 % of control and 65 % of control. The T/C [7] was 152 % of control and the T/C [8] was 189 % of control.

In the case of `Cc1ccc2c(c1)N=C(Nc1ccccc1)N=S2(C)=O` (stereo unspecified), the T/C [5] is reported as 76 % of control, the T/C [9] is reported as 85 % of control and the T/C [6] is reported as 82 % of control. The T/C [8] was 105 % of control.

`CCn1cnc2c(=S)nc[nH]c21` was tested, and the T/C [9] was 87 % of control, the T/C [6] was 64 % of control and the T/C [7] was 57 % of control. The T/C [8] was 21 % of control.

For `CN(C(=S)S(=O)(=O)C12CC3CC(CC(C3)C1)C2)c1ccccc1`, the T/C (dose: 3.12 mg/kg/injection, schedule: Q07DX002 (ip), vehicle: Klucel (hydroxypropylcellulose) (HPC)) was 104 % of control, the T/C (dose: 6.25 mg/kg/injection, schedule: Q07DX002 (ip), vehicle: Klucel (hydroxypropylcellulose) (HPC)) was 92 % of control and 102 % of control and the T/C (dose: 12.5 mg/kg/injection, schedule: Q07DX002 (ip), vehicle: Klucel (hydroxypropylcellulose) (HPC)) was 116 % of control and 93 % of control. The T/C [10] was 101 % of control and 106 % of control, the T/C [1] was 115 % of control and the T/C [2] was 105 % of control.

In the case of `CN(C)C(=O)SC1=C(c2c(Cl)cccc2Cl)C(=O)c2ccccc21`, the T/C [10] is reported as 76 % of control, the T/C [1] is reported as 94 % of control and the T/C [2] is reported as 86 % of control. The T/C [3] was 82 % of control and the T/C (dose: 800.0 mg/kg/injection, schedule: Q07DX002 (ip), vehicle: Klucel (hydroxypropylcellulose) (HPC)) was 91 % of control.

With `CNC(=O)OCc1c(COC(=O)NC)c(-c2ccccc2)n(C)c1-c1ccccc1` the T/C (dose: 100.0 mg/kg/injection, schedule: Q07DX002 (ip), vehicle: distilled water + Tween-80) was 62 % of control.

With `COC1=C(C)C(=O)C2=C(C1=O)C(CO)N1C(C#N)C3CC4C(C1C2N1CCOC41)N3C` (stereo unspecified) the T/C (dose: 0.25 mg/kg/injection, schedule: Q07DX002 (ip), vehicle: saline + alcohol) was 67 % of control, the T/C (dose: 0.5 mg/kg/injection, schedule: Q07DX002 (ip), vehicle: saline + alcohol) was 109 % of control and the T/C (dose: 2.0 mg/kg/injection, schedule: Q07DX002 (ip), vehicle: saline + alcohol) was 153 % of control. The T/C (dose: 4.0 mg/kg/injection, schedule: Q07DX002 (ip), vehicle: saline + alcohol) was 87 % of control.

In the case of `Cc1cc(O)c2c(c1O)C(=O)C13C(=C2O)C(=O)C2C(O)C1C1C(O)C3C(=O)C3=C(O)c4c(O)cc(C)c(O)c4C(=O)C321` (stereo unspecified), the T/C [4] is reported as 68 % of control.
